# Data reported in PubChem BioAssay AID328 (DTP/NCI, 2004).
# Where “and” joins values, the source holds several entries; their conditions need not be identical. Equal entries are not always repeated. Inconclusive results and toxic doses are left out.
# Tested on: BDF1 mice, P388 leukemia ip, median survival T/C
# Assay: NCI In Vivo Anticancer Drug Screen. Data for tumor model P388 Leukemia (intraperitoneal) in B6D2F1 (BDF1) mice
# Details: endpoint: median survival time, higher = longer survival
# How it was run: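 Read-out is survival of treated animals expressed relative to the vehicle group, as a T/C ratio.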
# [1] = dose: 50.0 mg/kg/injection, schedule: Q01DX009 (ip), vehicle: saline with Tween-80
# [2] = dose: 100.0 mg/kg/injection, schedule: Q01DX009 (ip), vehicle: saline with Tween-80
# [3] = dose: 200.0 mg/kg/injection, schedule: Q01DX009 (ip), vehicle: saline with Tween-80
# [4] = dose: 100.0 mg/kg/injection, schedule: Q04DX003 (ip), vehicle: saline with Tween-80
# [5] = dose: 200.0 mg/kg/injection, schedule: Q04DX003 (ip), vehicle: saline with Tween-80
# [6] = dose: 100.0 mg/kg/injection, schedule: Q04DX003 (ip), vehicle: Klucel (hydroxypropylcellulose) (HPC)
# [7] = dose: 200.0 mg/kg/injection, schedule: Q04DX003 (ip), vehicle: Klucel (hydroxypropylcellulose) (HPC)
# [8] = dose: 25.0 mg/kg/injection, schedule: Q01DX009 (ip), vehicle: saline with Tween-80
# [9] = dose: 50.0 mg/kg/injection, schedule: Q01DX009 (ip), vehicle: Klucel (hydroxypropylcellulose) (HPC)
# [10] = dose: 100.0 mg/kg/injection, schedule: Q01DX001 (ip), vehicle: other
# [11] = dose: 100.0 mg/kg/injection, schedule: Q01DX009 (ip), vehicle: Klucel (hydroxypropylcellulose) (HPC)
# [12] = dose: 200.0 mg/kg/injection, schedule: Q01DX001 (ip), vehicle: other
# [13] = dose: 200.0 mg/kg/injection, schedule: Q01DX009 (ip), vehicle: Klucel (hydroxypropylcellulose) (HPC)
# [14] = dose: 400.0 mg/kg/injection, schedule: Q01DX001 (ip), vehicle: other
# [15] = dose: 400.0 mg/kg/injection, schedule: Q04DX003 (ip), vehicle: Klucel (hydroxypropylcellulose) (HPC)
# [16] = dose: 25.0 mg/kg/injection, schedule: Q01DX009 (ip), vehicle: Klucel (hydroxypropylcellulose) (HPC)
structure (smiles),measurement,setting,value
CCOC(=O)c1cc(C)nnc1C(=O)OCC,T/C,"dose: 100.0 mg/kg/injection, schedule: Q04DX003 (ip), vehicle: saline",95 % of control
same,T/C,"dose: 200.0 mg/kg/injection, schedule: Q04DX003 (ip), vehicle: saline",95 % of control
same,T/C,"dose: 400.0 mg/kg/injection, schedule: Q04DX003 (ip), vehicle: saline",91 % of control
CCc1c(-c2ccccc2)[nH]c2ccccc12,T/C,[1],115 % of control
same,T/C,[2],113 % of control
same,T/C,[3],123 % of control
IC12CC3CC(CC(C3)C1)C2,T/C,[4],90 % of control
same,T/C,[5],90 % of control
same,T/C,"dose: 400.0 mg/kg/injection, schedule: Q04DX003 (ip), vehicle: saline with Tween-80",86 % of control
O=C(O)c1cc2ccccc2c2cc(Br)ccc12,T/C,[4],100 % of control
same,T/C,[5],104 % of control
CN(/N=C/C(O)C(O)C(O)CO)c1ccccc1 (stereo not given),T/C,"dose: 50.0 mg/kg/injection, schedule: Q04DX003 (ip), vehicle: Klucel (hydroxypropylcellulose) (HPC)",105 % of control
same,T/C,[6],105 % of control
same,T/C,[7],100 % of control
CCNc1nc2ncnc(NCC)c2[nH]1,T/C,"dose: 3.13 mg/kg/injection, schedule: Q01DX009 (ip), vehicle: saline with Tween-80",94 % of control
same,T/C,"dose: 6.25 mg/kg/injection, schedule: Q01DX009 (ip), vehicle: saline with Tween-80",103 % of control
same,T/C,"dose: 12.5 mg/kg/injection, schedule: Q01DX009 (ip), vehicle: saline with Tween-80",100 % of control
same,T/C,[8],101 % of control
CC1CC=CCC1COC(OCC1CC=CCC1C)C1CC=CCC1C (stereo not given),T/C,"dose: 100.0 mg/kg/injection, schedule: Q04DX003 (ip), vehicle: other",104 % of control
same,T/C,"dose: 200.0 mg/kg/injection, schedule: Q04DX003 (ip), vehicle: other",114 % of control
same,T/C,"dose: 400.0 mg/kg/injection, schedule: Q04DX003 (ip), vehicle: other",119 % of control
CSc1ccc(NC(=O)N(CCCl)N=O)cc1,T/C,"dose: 6.25 mg/kg/injection, schedule: Q01DX009 (ip), vehicle: saline",100 % of control
same,T/C,"dose: 6.25 mg/kg/injection, schedule: Q04DX003 (ip), vehicle: saline sonified",90 % of control
same,T/C,"dose: 11.0 mg/kg/injection, schedule: Q04DX003 (ip), vehicle: saline sonified",100 % of control
same,T/C,"dose: 12.5 mg/kg/injection, schedule: Q01DX009 (ip), vehicle: saline",100 % of control
same,T/C,"dose: 12.5 mg/kg/injection, schedule: Q04DX003 (ip), vehicle: saline sonified",109 % of control
same,T/C,"dose: 16.0 mg/kg/injection, schedule: Q04DX003 (ip), vehicle: saline sonified",122 % of control
same,T/C,"dose: 25.0 mg/kg/injection, schedule: Q01DX009 (ip), vehicle: saline",116 % of control
same,T/C,"dose: 37.5 mg/kg/injection, schedule: Q04DX003 (ip), vehicle: saline sonified",122 % of control
COC(=O)C1(Br)CCC1(Br)C(=O)OC (stereo not given),T/C,[9],100 % of control
same,T/C,[10],100 % of control
same,T/C,[11],109 % of control
same,T/C,[6],109 % of control
same,T/C,[12],95 % of control
same,T/C,[13],113 % of control
same,T/C,[7],109 % of control
same,T/C,[14],112 % of control
same,T/C,[15],113 % of control
CC(C)Cn1cnc2c(Sc3c([N+](=O)[O-])ncn3C)nc(N)nc21,T/C,"dose: 67.0 mg/kg/injection, schedule: Q01DX009 (ip), vehicle: Klucel (hydroxypropylcellulose) (HPC)",115 % of control
same,T/C,[13],91 % of control and 104 % of control
same,T/C,"dose: 400.0 mg/kg/injection, schedule: Q01DX009 (ip), vehicle: Klucel (hydroxypropylcellulose) (HPC)",86 % of control
same,T/C,[15],118 % of control
CCCCCCCCC(=O)NCc1ccc(OC)cc1,T/C,[10],91 % of control
same,T/C,[12],100 % of control
same,T/C,[14],91 % of control
O=C(/C=C/c1ccc(OCc2ccccc2)cc1)c1cccs1,T/C,[1],98 % of control
same,T/C,[2],92 % of control
CS(=O)(=O)OCCN(CCOS(C)(=O)=O)c1cccc(C(F)(F)F)c1,T/C,"dose: 33.0 mg/kg/injection, schedule: Q04DX003 (ip), vehicle: saline with Tween-80",155 % of control and 168 % of control
same,T/C,"dose: 50.0 mg/kg/injection, schedule: Q04DX003 (ip), vehicle: saline with Tween-80",170 % of control and 190 % of control
same,T/C,"dose: 75.0 mg/kg/injection, schedule: Q04DX003 (ip), vehicle: saline with Tween-80",236 % of control and 190 % of control
O=[N+]([O-])c1cc2no[n+]([O-])c2cc1N1CCN(c2cc3c(cc2[N+](=O)[O-])no[n+]3[O-])CC1,T/C,"dose: 15.0 mg/kg/injection, schedule: Q01DX009 (ip), vehicle: saline with Tween-80",97 % of control
same,T/C,"dose: 30.0 mg/kg/injection, schedule: Q01DX009 (ip), vehicle: saline with Tween-80",98 % of control
same,T/C,"dose: 60.0 mg/kg/injection, schedule: Q01DX009 (ip), vehicle: saline with Tween-80",97 % of control
CC(C)(C)C(=O)C(Oc1ccc(Cl)cc1)n1cncn1 (stereo not given),T/C,[1],100 % of control
same,T/C,[2],100 % of control
same,T/C,[3],100 % of control
O=NN(CCBr)C(=O)Nc1ccccc1,T/C,"dose: 4.0 mg/kg/injection, schedule: Q04DX003 (ip), vehicle: Klucel (hydroxypropylcellulose) (HPC)",107 % of control
same,T/C,"dose: 6.5 mg/kg/injection, schedule: Q04DX003 (ip), vehicle: Klucel (hydroxypropylcellulose) (HPC)",119 % of control
same,T/C,"dose: 11.0 mg/kg/injection, schedule: Q01DX009 (ip), vehicle: Klucel (hydroxypropylcellulose) (HPC)",150 % of control and 158 % of control
same,T/C,"dose: 15.0 mg/kg/injection, schedule: Q04DX003 (ip), vehicle: Klucel (hydroxypropylcellulose) (HPC)",162 % of control
same,T/C,"dose: 16.5 mg/kg/injection, schedule: Q01DX009 (ip), vehicle: Klucel (hydroxypropylcellulose) (HPC)",166 % of control
same,T/C,"dose: 16.5 mg/kg/injection, schedule: Q01DX009 (ip), vehicle: saline with Tween-80",185 % of control
same,T/C,[16],195 % of control and 215 % of control
same,T/C,[8],200 % of control
same,T/C,"dose: 29.0 mg/kg/injection, schedule: Q04DX003 (ip), vehicle: Klucel (hydroxypropylcellulose) (HPC)",154 % of control and 168 % of control
same,T/C,"dose: 37.5 mg/kg/injection, schedule: Q01DX009 (ip), vehicle: Klucel (hydroxypropylcellulose) (HPC)",220 % of control
same,T/C,"dose: 37.5 mg/kg/injection, schedule: Q01DX009 (ip), vehicle: saline with Tween-80",210 % of control
same,T/C,"dose: 44.0 mg/kg/injection, schedule: Q04DX003 (ip), vehicle: Klucel (hydroxypropylcellulose) (HPC)",175 % of control and 181 % of control
same,T/C,"dose: 67.0 mg/kg/injection, schedule: Q04DX003 (ip), vehicle: Klucel (hydroxypropylcellulose) (HPC)",167 % of control and 185 % of control and 204 % of control
same,T/C,[6],121 % of control and 211 % of control
same,T/C,"dose: 150.0 mg/kg/injection, schedule: Q04DX003 (ip), vehicle: Klucel (hydroxypropylcellulose) (HPC)",175 % of control
CCOC(=O)CC(C)C(Br)(C(=O)OCC)C(=O)OCC (stereo not given),T/C,"dose: 25.0 mg/kg/injection, schedule: Q01DX009 (ip), vehicle: water",110 % of control
same,T/C,"dose: 25.0 mg/kg/injection, schedule: Q04DX003 (ip), vehicle: water",108 % of control
same,T/C,"dose: 50.0 mg/kg/injection, schedule: Q01DX009 (ip), vehicle: water",121 % of control
same,T/C,"dose: 50.0 mg/kg/injection, schedule: Q04DX003 (ip), vehicle: water",110 % of control
same,T/C,"dose: 100.0 mg/kg/injection, schedule: Q01DX009 (ip), vehicle: water",114 % of control
same,T/C,"dose: 100.0 mg/kg/injection, schedule: Q04DX003 (ip), vehicle: water",117 % of control
same,T/C,"dose: 200.0 mg/kg/injection, schedule: Q04DX003 (ip), vehicle: water",106 % of control
Cc1c2c(nn1-c1ccccn1)C(=O)C=C(Nc1ccccc1)C2=O,T/C,"dose: 8.8 mg/kg/injection, schedule: Q01DX009 (ip), vehicle: carboxymethylcellulose (CMC)",91 % of control
CCOC(=O)c1c[nH]n2c(=S)ncnc12,T/C,[2],100 % of control and 109 % of control
same,T/C,[3],110 % of control
same,T/C,"dose: 400.0 mg/kg/injection, schedule: Q01DX009 (ip), vehicle: saline with Tween-80",104 % of control
COc1ccc(C(=S)N(C)NC(=O)CC(=O)NN(C)C(=S)c2ccc(OC)cc2)cc1,T/C,[16],100 % of control
same,T/C,[9],102 % of control
same,T/C,[11],89 % of control
same,T/C,[13],100 % of control
C[C@@H]1C[C@H]2CC[C@H](O2)[C@H](C)C(=O)O[C@@H](C)C[C@@H]2CC[C@@H](O2)[C@@H](C)C(=O)O[C@H](C)C[C@H]2CC[C@H](O2)[C@H](C)C(=O)O[C@@H](C)C[C@@H]2CC[C@@H](O2)[C@@H](C)C(=O)O1,T/C,[1],90 % of control
same,T/C,[2],109 % of control
same,T/C,[4],104 % of control
same,T/C,[5],86 % of control
